# Experimental data from publication PMC11124870, “Effect of Antioxidants in Medicinal Products on Intestinal Drug Transporters” (Pharmaceutics, 2024).
# Where two headings read alike, the source gives them in different places.
# Experiments:
# OATP2B1 = target: T1, OATP2B1 (Homo sapiens, UniProt O94956); experiment: Uptake transporter assay, 3H-estrone sulfate uptake in HEK-293-OATP2B1 cells
# T1 sequence (O94956 1-709): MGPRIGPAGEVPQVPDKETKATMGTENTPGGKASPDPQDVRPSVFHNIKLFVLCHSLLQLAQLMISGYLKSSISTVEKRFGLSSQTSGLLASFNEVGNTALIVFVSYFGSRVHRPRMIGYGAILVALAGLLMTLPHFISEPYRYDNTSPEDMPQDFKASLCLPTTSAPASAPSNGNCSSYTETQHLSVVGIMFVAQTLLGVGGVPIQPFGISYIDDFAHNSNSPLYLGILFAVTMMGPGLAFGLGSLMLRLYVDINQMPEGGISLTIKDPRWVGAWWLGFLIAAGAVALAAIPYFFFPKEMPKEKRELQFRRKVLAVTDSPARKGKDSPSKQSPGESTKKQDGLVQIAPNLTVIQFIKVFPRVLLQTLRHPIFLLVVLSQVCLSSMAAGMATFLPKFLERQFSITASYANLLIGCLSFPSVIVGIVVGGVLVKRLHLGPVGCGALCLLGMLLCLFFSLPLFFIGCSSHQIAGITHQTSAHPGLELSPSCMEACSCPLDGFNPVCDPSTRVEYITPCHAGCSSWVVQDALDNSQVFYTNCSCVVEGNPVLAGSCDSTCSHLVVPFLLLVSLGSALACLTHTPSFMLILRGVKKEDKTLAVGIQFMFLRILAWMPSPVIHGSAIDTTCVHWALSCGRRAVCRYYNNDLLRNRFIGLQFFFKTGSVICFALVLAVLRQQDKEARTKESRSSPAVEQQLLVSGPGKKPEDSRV
# Method: The uptake transporter assay was performed as reported previously with minor modifications [15]. A day before the uptake assay, Isoplate 96-well plates were coated with poly-D-lysine in PBS with calcium and magnesium and washed with PBS. […] An assay mixture of ^3H-estrone sulfate, a known inhibitor of OATP2B1, or an antioxidant was prepared and incubated in a 37 °C incubator for 10 min. The cells were washed with ice-cold HBSS three times and incubated with MicroScint fluid on a shaker for 1 h for cell lysis. Radioactivity was measured by liquid scintillation counting with a MicroBeta^2® microplate counter. […] On the day of experiment, cells were washed twice with 0.4 mL of HBSS per well and then pre-incubated for 10–20 min in 0.4 mL of HBSS. […] Uptake of ^3H-valsartan was stopped after 15 min by washing three times with ice-cold HBSS. Cells were lysed in 750 µL of lysis buffer (0.1 N NaOH and 0.1% SDS in double-distilled water) per well while shaking for 60 min. A total of 690 µL of the lysate from each well was then added to 2.5 mL of EcoLite scintillation fluid. The radioactivity was determined on a LS6500 Scintillation Counter (Beckman Coulter). Protein concentration was measured with a Pierce™ BCA protein assay kit. The radioactivity in each well was corrected for protein concentration. All values were determined in triplicate, and the final values are expressed as % uptake relative to negative control (1% DMSO).
# Antioxidants were screened at a concentration of 200 μM.
# P-gp = target: T2, P-gp (Homo sapiens, UniProt P08183); experiment: Vesicular transport assay, 3H-NMQ uptake in P-gp membrane vesicles; assay type: biochemical; conditions: for % Uptake of 3H-NMQ P-gp: antioxidant 200 µM, uptake with DMSO set as 100%, mean ± SD, three replicates, membrane vesicles
# T2 construct: purchased ThermoFisher Scientific GM0015; host or cells: Sf9 membrane vesicles
# Method: (§1) The vesicular transport assay was performed using Spodoptera frugiperda 9 (Sf9) membrane vesicles overexpressing human P-gp or BCRP, as reported previously with minor modifications. In brief, Isoplate 96-well flat-bottom white plates were preincubated with HBSS containing 0.5 mg/mL BSA on an orbital shaker in a 37 °C incubator at 90 rpm for 60 min followed by washing with HBSS. The assay mixture (75 µL/well) contained a probe substrate and either vehicle control, a known inhibitor of P-gp or BCRP, or an antioxidant, in vesicle uptake buffer (50 mM MOPS-Tris, pH 7.0 + 70 mM KCl + 7.5 mM MgCl2) prewarmed to 37 °C. After addition of the assay mixture, 5 μL/well (5 μg/μL stock concentration of the vesicles) of vesicles overexpressing human P-gp or BCRP was added. Uptake assays were initiated by adding 20 μL of either 25 mM adenosine triphosphate (ATP) or 25 mM adenosine monophosphate (AMP) to a final concentration of 5 mM. Plates were incubated at 37 °C for 20 min with orbital shaking (90 rpm). After 20 min, the uptake was quenched by adding 150 μL of ice-cold wash buffer (40 mM MOPS-Tris, pH 7.0 + 70 mM KCl) to each well, and the mixture was transferred to a 96-well filtration plate. Vacuum was applied, and the vesicles were washed three times with wash buffer. Vesicles were then lysed with 100 µL of MicroScint-20.
# [1] = Table S1; source not stated; cited from earlier work
# BCRP = target: T3, BCRP (Homo sapiens, UniProt Q9UNQ0); experiment: Vesicular transport assay, 3H-CCK8 uptake in BCRP membrane vesicles; assay type: biochemical; parameters: purchased ThermoFisher Scientific GM0008; host or cells: Sf9 membrane vesicles; conditions: for % Uptake of 3H-CCK8 BCRP: antioxidant 200 µM, uptake with DMSO set as 100%, mean ± SD, three replicates, membrane vesicles
# T3 sequence (Q9UNQ0 1-655): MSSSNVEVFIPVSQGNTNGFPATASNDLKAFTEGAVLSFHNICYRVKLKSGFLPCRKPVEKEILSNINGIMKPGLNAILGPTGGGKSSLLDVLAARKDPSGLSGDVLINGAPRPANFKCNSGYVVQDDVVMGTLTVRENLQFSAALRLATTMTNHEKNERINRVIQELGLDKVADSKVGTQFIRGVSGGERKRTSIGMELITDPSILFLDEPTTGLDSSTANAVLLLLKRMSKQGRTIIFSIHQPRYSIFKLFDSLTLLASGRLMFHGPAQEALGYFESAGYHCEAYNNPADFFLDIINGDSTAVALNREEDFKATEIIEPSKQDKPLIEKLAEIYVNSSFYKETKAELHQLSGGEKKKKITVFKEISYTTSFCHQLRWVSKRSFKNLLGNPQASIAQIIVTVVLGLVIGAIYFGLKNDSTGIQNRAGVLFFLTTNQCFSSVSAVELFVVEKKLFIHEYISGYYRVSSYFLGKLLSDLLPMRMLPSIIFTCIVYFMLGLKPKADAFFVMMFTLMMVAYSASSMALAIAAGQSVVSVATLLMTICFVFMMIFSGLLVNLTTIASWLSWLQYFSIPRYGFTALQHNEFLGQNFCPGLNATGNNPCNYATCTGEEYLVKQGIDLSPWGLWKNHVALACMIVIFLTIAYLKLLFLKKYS
# Method: as §1
# OATP2B1, P-gp, and BCRP = conditions: cited from earlier work
# [2] = antioxidant 200 µM, uptake with DMSO set as 100%, mean ± SD, three replicates, HEK-293-OATP2B1 cells
# T2 sequence (P08183 whole entry): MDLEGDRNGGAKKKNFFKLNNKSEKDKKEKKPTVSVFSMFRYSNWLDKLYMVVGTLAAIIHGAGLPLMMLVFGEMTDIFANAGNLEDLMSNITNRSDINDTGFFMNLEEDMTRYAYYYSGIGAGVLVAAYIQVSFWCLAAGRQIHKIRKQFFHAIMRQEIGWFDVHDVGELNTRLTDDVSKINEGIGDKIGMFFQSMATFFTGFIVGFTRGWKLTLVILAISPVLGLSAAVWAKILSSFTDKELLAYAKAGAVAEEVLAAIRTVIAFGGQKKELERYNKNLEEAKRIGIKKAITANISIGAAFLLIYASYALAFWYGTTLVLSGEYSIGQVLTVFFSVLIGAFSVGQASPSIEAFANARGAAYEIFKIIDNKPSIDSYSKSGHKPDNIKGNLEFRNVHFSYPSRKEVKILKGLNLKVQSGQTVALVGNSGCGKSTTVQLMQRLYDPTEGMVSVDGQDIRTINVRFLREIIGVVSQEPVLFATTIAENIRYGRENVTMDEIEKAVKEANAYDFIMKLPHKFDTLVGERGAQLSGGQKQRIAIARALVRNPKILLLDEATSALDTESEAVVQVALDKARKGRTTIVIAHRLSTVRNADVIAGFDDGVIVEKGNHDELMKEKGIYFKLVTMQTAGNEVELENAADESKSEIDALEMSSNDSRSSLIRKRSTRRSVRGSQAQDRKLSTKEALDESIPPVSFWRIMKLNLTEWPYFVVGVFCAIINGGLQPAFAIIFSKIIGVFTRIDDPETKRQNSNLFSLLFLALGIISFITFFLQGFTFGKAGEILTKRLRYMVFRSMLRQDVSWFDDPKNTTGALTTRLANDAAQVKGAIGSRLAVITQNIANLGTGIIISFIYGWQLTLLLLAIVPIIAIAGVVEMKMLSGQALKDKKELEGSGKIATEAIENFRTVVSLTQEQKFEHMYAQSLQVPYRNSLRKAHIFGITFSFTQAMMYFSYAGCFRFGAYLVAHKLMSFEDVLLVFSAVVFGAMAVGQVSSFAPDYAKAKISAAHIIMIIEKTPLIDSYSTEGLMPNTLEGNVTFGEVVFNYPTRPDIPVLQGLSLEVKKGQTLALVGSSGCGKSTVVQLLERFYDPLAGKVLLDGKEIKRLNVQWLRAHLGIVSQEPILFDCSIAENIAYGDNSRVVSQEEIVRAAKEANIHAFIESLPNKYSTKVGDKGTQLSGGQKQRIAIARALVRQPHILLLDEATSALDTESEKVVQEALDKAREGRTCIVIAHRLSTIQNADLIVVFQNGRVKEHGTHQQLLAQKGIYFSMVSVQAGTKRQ
"Uptake of 3H-ES in HEK-293 cells expressing OATP2B1 (assay validation) (OATP2B1; erlotinib 20 µM, 37 °C, 10 min)",% Uptake of 3H-ES OATP2B1 (OATP2B1) [%],Compound,% Uptake of 3H-ES OATP2B1 (OATP2B1; [2]) [%],% Uptake of 3H-NMQ P-gp (P-gp) [%],LogP [1],% Uptake of 3H-CCK8 BCRP (BCRP) [%],"Uptake of 3H-CCK8 in BCRP membrane vesicles (assay validation) (BCRP; BSP 200 µM with 5 mM ATP, 37 °C, 20 min)","inhibition at 20 min, 200 µM (P-gp; human, Sf9 membrane vesicles overexpressing human P-gp, pH 7, probe 3H-NMQ, 200 µM, 3H-NMQ) [%]","Inhibition of intestinal transporters, previous assessment (OATP2B1, P-gp, and BCRP)"
–,–,"O=C(O)c1ccc(O)c(O)c1 [3,4-dihydroxybenzoid acid, 3,4-dihydroxybenzoic acid]",85.4 ± 4.4,118.9 ± 20,0.86,78.5 ± 6.9,–,–,–
–,–,O=C(O)CC(O)(CC(=O)O)C(=O)O [Anhydrous citric acid],–,92 ± 2.1,–,93.1 ± 6.7,–,–,–
–,–,O=C1O[C@H]([C@@H](O)CO)C(O)=C1O [Ascorbic acid],–,113.6 ± 43.3,-1.85,92.7 ± 5.9,–,–,–
–,–,"O=C1OC(c2ccc(O)c(S(=O)(=O)O)c2)(c2ccc(O)c(S(=O)(=O)O)c2)c2c(Br)c(Br)c(Br)c(Br)c21 [Bromosulfophthalein, reference compound]",10.9 ± 8.1,0.0 ± 22,–,0.3 ± 1.2,significantly reduced the uptake,–,–
–,–,"Cc1cc(C(C)(C)C)c(O)c(C(C)(C)C)c1 [Butylated hydroxytoluene (BH), Butylated hydroxytoluene]",137.1 ± 34.8,98.1 ± 20.3,–,102.8 ± 9.2,–,–,–
–,–,O=C(O)/C=C/c1ccc(O)c(O)c1 [Caffeic acid],119.8 ± 19.8,133.8 ± 12,–,75.8 ± 3.7,–,–,–
–,–,NCCC(=O)N[C@@H](Cc1cnc[nH]1)C(=O)O [Carnosine],119.3 ± 27.6,82.6 ± 44,-4,99.7 ± 11.6,–,–,–
–,–,COC1=C(OC)C(=O)C(C/C=C(\C)CC/C=C(\C)CC/C=C(\C)CC/C=C(\C)CC/C=C(\C)CC/C=C(\C)CC/C=C(\C)CC/C=C(\C)CC/C=C(\C)CCC=C(C)C)=C(C)C1=O [Co-enzyme Q-10],116.1 ± 16.0,90.3 ± 16.3,10,82.7 ± 16.2,–,–,–
–,–,"COc1cc(/C=C/C(=O)CC(=O)/C=C/c2ccc(O)c(OC)c2)ccc1O [Curcumin, reference compound]",–,0.0 ± 2.8,–,0.0 ± 1.8,–,–,–
–,–,Cl.N[C@@H](CS)C(=O)O [Cysteine hydrochloride],–,–,–,90.0 ± 12.5,–,–,–
–,–,"O=C([O-])CN(CCN(CC(=O)[O-])CC(=O)O)CC(=O)O.[Na+].[Na+] [EDTA (edetate disodium), edetate disodium]",–,69.3 ± 20.5,–,110.4 ± 24.6,–,–,–
–,–,C[N+](C)(C)[C@@H](Cc1c[nH]c(=S)[nH]1)C(=O)[O-] [Ergothioneine],118.2 ± 30.6,58.2 ± 23.6,0.3,112.5 ± 11.2,–,–,–
significantly inhibited,–,"C#Cc1cccc(Nc2ncnc3cc(OCCOC)c(OCCOC)cc23)c1 [Erlotinib, reference compound]",–,63 ± 5,–,58.5 ± 3.9,–,–,–
–,–,O=C1O[C@H]([C@H](O)CO)C(O)=C1O [Erythorbic acid],–,81.8 ± 31.4,-1.88,88.2 ± 7.5,–,–,–
–,–,COc1cc(/C=C/C(=O)O)ccc1O [Ferulic acid],136.4 ± 20.7,100.4 ± 16.6,–,91.0 ± 4.7,–,–,–
–,–,N[C@@H](CCC(=O)N[C@@H](CS)C(=O)NCC(=O)O)C(=O)O [Glutathione],107.9 ± 7.8,79.8 ± 15.8,–,95.9 ± 2.2,–,–,–
–,–,NCC(=O)O [Glycine],125.6 ± 23.0,–,–,–,–,–,–
–,–,N[C@@H](Cc1c[nH]cn1)C(=O)O [Histidine],108.9 ± 4.0,87.6 ± 10.6,-3.32,92.4 ± 1.6,–,–,–
–,–,NCCCC[C@H](N)C(=O)O [Lysine],120.3 ± 21.4,32.5 ± 44.3,-3.05,109.0 ± 20.8,–,≥ 50,–
–,–,CSCC[C@H](N)C(=O)O [Methionine],113.2 ± 15.2,86.7 ± 24.5,-1.87,94.8 ± 9.4,–,–,–
–,–,O=P(O)(O)O [Phosphoric acid],–,–,–,83.0 ± 18.0,–,–,–
–,–,C/C=C/C=C/C(=O)[O-].[K+] [Potassium sorbate],98.8 ± 19.8,103.5 ± 28.7,–,104.8 ± 14.5,–,–,–
–,–,CCCOC(=O)c1cc(O)c(O)c(O)c1 [Propyl gallate],79.3 ± 17.2,149.1 ± 67.6,–,86.5 ± 2.6,–,–,–
–,–,Oc1ccc2c(c1)OCO2 [Sesamol],103.1 ± 7.2,121.3 ± 35.1,1.57,90.3 ± 3.7,–,–,–
–,–,O=S([O-])O.[Na+] [Sodium bisulfite],90.1 ± 24.5,96.1 ± 30.4,-1.2,110.4 ± 9.3,–,–,–
–,–,O=S(O)S(=O)(=O)O [Sodium metabisulfite],118.9 ± 31.7,78.8 ± 17.5,-3.7,94.5 ± 8.2,–,–,–
–,–,O=S([O-])[O-].[Na+].[Na+] [Sodium sulfite],92.9 ± 4.5,77.7 ± 33.7,-4,99.7 ± 5.5,–,–,–
–,–,"O.O.O.O.O.O=S([O-])([O-])=S.[Na+].[Na+] [Sodium thiosulfate, pentahydrate]",104.4 ± 2.4,77.4 ± 20,0.048,114.2 ± 22.8,–,–,found not to inhibit these transporters
–,101.1 ± 5.8,O=C(O)C(O)C(O)C(=O)O (stereo not drawn) [Tartaric acid],–,–,-0.76,–,–,–,–
–,–,Vitamin E,83.5 ± 20.9,67.9 ± 24,–,81.0 ± 12.6,–,–,found not to inhibit these transporters
